Experimental data taken from patent US20250145633A1, “SUBSTITUTED FURANOPYRIMIDINE COMPOUNDS AS PDE1 INHIBITORS” (Dart NeuroScience, LLC, priority 2017, published 2025).

These molecules were tested against human PDE1B enzyme (Homo sapiens (Human), UniProt Q01064) (assay: IMAP TR-FRET PDE1B enzymatic assay). Details: negative log of half-maximal molar inhibitory concentration; 200 nM FAM-cAMP; values given as bins.
Format: biochemical
Method in brief: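 Full-length GST-tagged human PDE1B (250 pg/well) in IMAP BSA buffer with 10 U/ml calmodulin and 2.5 mM CaCl2; compound pre-incubated 5 min at room temperature, then 200 nM (final) FAM-cAMP for 30 min. IMAP binding reagent/Tb added, 1 h; TR-FRET 520/490 ratio read. IC50 from sigmoidal dose-response fit.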

`Cc1oc2ncnc(NC3(C)CC3)c2c1C(=O)N1CCN(c2ccc(C#N)cc2)CC1` [Example 47, 4-(4-{6-Methyl-4-[(1-methylcyclopropyl)amino]furo[2,3-d]pyrimidine-5-carbonyl}piperazin-1-yl)benzonitrile] was tested, and the “PDE1b (pIC50)” value was over 8.
In the case of `Cc1oc2ncnc(NC3(C)CC3)c2c1C(=O)N1CCC(c2ccc(O)cc2)C1` (stereo not drawn) [Example 346, 4-(1-{6-Methyl-4-[(1-methylcyclopropyl)amino]furo[2,3-d]pyrimidine-5-carbonyl}pyrrolidin-3-yl)phenol], the “PDE1b (pIC50)” value is reported as over 8.
In the case of `Cc1oc2ncnc(NC3(C)CC3)c2c1C(=O)N1CCc2c(ncnc2OCC(C)C)C1` [Example 807, 6-Methyl-N-(1-methylcyclopropyl)-5-[4-(2-methylpropoxy)-5H,6H,7H,8H-pyrido[3,4-d]pyrimidine-7-carbonyl]furo[2,3-d]pyrimidin-4-amine], the “PDE1b (pIC50)” value is reported as over 8.
For `Cc1oc2ncnc(NC3(C)CC3)c2c1C(=O)N1CCC(c2ncccn2)CC1` [Example 309, 6-Methyl-N-(1-methylcyclopropyl)-5-[4-(pyrimidin-2-yl)piperidine-1-carbonyl]furo[2,3-d]pyrimidin-4-amine], the “PDE1b (pIC50)” value was over 8.
With `Cc1oc2ncnc(NC3(C)CC3)c2c1C(=O)N1CC(O)(c2ccc(F)cc2)C1` [Example 101, 3-(4-Fluorophenyl)-1-{6-methyl-4-[(1-methylcyclopropyl)amino]furo[2,3-d]pyrimidine-5-carbonyl}azetidin-3-ol] the “PDE1b (pIC50)” value was over 8.
In the case of `Cc1oc2ncnc(NC3(C)CC3)c2c1C(=O)NCc1ccc(C(F)(F)F)cn1` [Example 450, 6-Methyl-4-[(1-methylcyclopropyl)amino]-N-{[5-(trifluoromethyl)pyridin-2-yl]methyl}furo[2,3-d]pyrimidine-5-carboxamide], the “PDE1b (pIC50)” value is reported as over 8.
For `Cc1oc2ncnc(NC3(C)CC3)c2c1C(=O)N1CCc2c(ncnc2NCC2CC2)C1` [Example 343, 5-{4-[(Cyclopropylmethyl)amino]-5H,6H,7H,8H-pyrido[3,4-d]pyrimidine-7-carbonyl}-6-methyl-N-(1-methylcyclopropyl)furo[2,3-d]pyrimidin-4-amine], the “PDE1b (pIC50)” value was over 8.

Same assay, conditions: negative log of half-maximal molar inhibitory concentration; 200 nM FAM-cAMP; values given as bins; read-out: PDE1b (pIC50) (converted)

First: Cc1oc2ncnc(NC3(C)CC3)c2c1C(=O)Nc1ccn(C)n1 [Example 416, 6-Methyl-N-(1-methyl-1H-pyrazol-3-yl)-4-[(1-methylcyclopropyl)amino]furo[2,3-d]pyrimidine-5-carboxamide]
Second: Cc1ccnc(NC(=O)c2c(C)oc3ncnc(NC4(C)CC4)c23)c1 [Example 427, 6-Methyl-4-[(1-methylcyclopropyl)amino]-N-(4-methylpyridin-2-yl)furo[2,3-d]pyrimidine-5-carboxamide]
The IC50 of the first is lower: 10 to 100 nM for the first, 100 to 1000 nM for the second.

First: Cc1oc2ncnc(NC3(C)CC3)c2c1C(=O)Nc1ccc(C2CCOCC2)nc1 [Example 735, 6-Methyl-4-[(1-methylcyclopropyl)amino]-N-[6-(oxan-4-yl)pyridin-3-yl]furo[2,3-d]pyrimidine-5-carboxamide]
Second: Cc1oc2ncnc(NC3(C)CC3)c2c1C(=O)Nc1ccc(C2CCOCC2)cn1 [Example 727, 6-Methyl-4-[(1-methylcyclopropyl)amino]-N-[5-(oxan-4-yl)pyridin-2-yl]furo[2,3-d]pyrimidine-5-carboxamide]
The IC50 of the first is higher: 100 to 1000 nM for the first, 10 to 100 nM for the second.

`Cc1oc2ncnc(NC3(C)CC3)c2c1C(=O)NC1(c2cnccn2)CC1` [Example 311, 6-Methyl-4-[(1-methylcyclopropyl)amino]-N-[1-(pyrazin-2-yl)cyclopropyl]furo[2,3-d]pyrimidine-5-carboxamide] and `Cc1oc2ncnc(NC3(C)CC3)c2c1C(=O)NCc1ccncc1F` [Example 163, N-[(3-Fluoropyridin-4-yl)methyl]-6-methyl-4-[(1-methylcyclopropyl)amino]furo[2,3-d]pyrimidine-5-carboxamide] fall in the same range of IC50: 10 to 100 nM for the first, 10 to 100 nM for the second.

`Cc1oc2ncnc(NC3(C)CC3)c2c1C(=O)NCCc1nc2cc(F)ccc2o1` [Example 730, N-[2-(5-Fluoro-1,3-benzoxazol-2-yl)ethyl]-6-methyl-4-[(1-methylcyclopropyl)amino]furo[2,3-d]pyrimidine-5-carboxamide] and `Cc1oc2ncnc(NC3(C)CC3)c2c1C(=O)NCCc1ccc(F)cc1` [Example 50, N-[2-(4-Fluorophenyl)ethyl]-6-methyl-4-[(1-methylcyclopropyl)amino]furo[2,3-d]pyrimidine-5-carboxamide] fall in the same range of IC50: 10 to 100 nM for the first, 10 to 100 nM for the second.

`COc1ccc2c(n1)CCN(C(=O)c1c(C)oc3ncnc(NC4(C)CC4)c13)C2` [Example 635, 5-(2-Methoxy-5,6,7,8-tetrahydro-1,6-naphthyridine-6-carbonyl)-6-methyl-N-(1-methylcyclopropyl)furo[2,3-d]pyrimidin-4-amine] and `COc1cc2c(cn1)CN(C(=O)c1c(C)oc3ncnc(NC4(C)CC4)c13)CC2` [Example 634, 5-(6-Methoxy-1,2,3,4-tetrahydro-2,7-naphthyridine-2-carbonyl)-6-methyl-N-(1-methylcyclopropyl)furo[2,3-d]pyrimidin-4-amine] fall in the same range of IC50: 10 to 100 nM for the first, 10 to 100 nM for the second.

`Cc1oc2ncnc(NC3(C)CC3)c2c1C(=O)N1CCc2c(ncnc2N(C)C)C1` [Example 791, 5-[4-(Dimethylamino)-5H,6H,7H,8H-pyrido[3,4-d]pyrimidine-7-carbonyl]-6-methyl-N-(1-methylcyclopropyl)furo[2,3-d]pyrimidin-4-amine] and `Cc1oc2ncnc(NC3(C)CC3)c2c1C(=O)N1CCc2c(ncnc2N(C)C2CCOCC2)C1` [Example 793, 6-Methyl-5-{4-[methyl(oxan-4-yl)amino]-5H,6H,7H,8H-pyrido[3,4-d]pyrimidine-7-carbonyl}-N-(1-methylcyclopropyl)furo[2,3-d]pyrimidin-4-amine] fall in the same range of IC50: 10 to 100 nM for the first, 10 to 100 nM for the second.

`COc1c(C)cnc(CN(C)C(=O)c2c(C)oc3ncnc(NC4(C)CC4)c23)c1C` [Example 498, N-[(4-Methoxy-3,5-dimethylpyridin-2-yl)methyl]-N,6-dimethyl-4-[(1-methylcyclopropyl)amino]furo[2,3-d]pyrimidine-5-carboxamide] and `Cc1cnc(CN(C)C(=O)c2c(C)oc3ncnc(NC4(C)CC4)c23)s1` [Example 702, N,6-Dimethyl-N-[(5-methyl-1,3-thiazol-2-yl)methyl]-4-[(1-methylcyclopropyl)amino]furo[2,3-d]pyrimidine-5-carboxamide] fall in the same range of IC50: 10 to 100 nM for the first, 10 to 100 nM for the second.

`Cc1nnc(CNC(=O)c2c(C)oc3ncnc(NC4(C)CC4)c23)o1` [Example 717, 6-Methyl-N-[(5-methyl-1,3,4-oxadiazol-2-yl)methyl]-4-[(1-methylcyclopropyl)amino]furo[2,3-d]pyrimidine-5-carboxamide] and `Cc1oc2ncnc(NC3(C)CC3)c2c1C(=O)NCc1cc(-c2cnn(C)c2)on1` [Example 352, 6-Methyl-N-{[5-(1-methyl-1H-pyrazol-4-yl)-1,2-oxazol-3-yl]methyl}-4-[(1-methylcyclopropyl)amino]furo[2,3-d]pyrimidine-5-carboxamide] fall in the same range of IC50: 10 to 100 nM for the first, 10 to 100 nM for the second.

`Cc1oc2ncnc(NC3(C)CC3)c2c1C(=O)NCc1cc(-c2ccc(F)cc2)on1` [Example 325, N-{[5-(4-Fluorophenyl)-1,2-oxazol-3-yl]methyl}-6-methyl-4-[(1-methylcyclopropyl)amino]furo[2,3-d]pyrimidine-5-carboxamide] and `COc1cc(F)ccc1CNC(=O)c1c(C)oc2ncnc(NC3(C)CC3)c12` [Example 525, N-[(4-Fluoro-2-methoxyphenyl)methyl]-6-methyl-4-[(1-methylcyclopropyl)amino]furo[2,3-d]pyrimidine-5-carboxamide] fall in the same range of IC50: 10 to 100 nM for the first, 10 to 100 nM for the second.

`COc1cc(CN(C(=O)c2c(C)oc3ncnc(NC4(C)CC4)c23)C2CC2)ncn1` [Example 28, N-Cyclopropyl-N-[(6-methoxypyrimidin-4-yl)methyl]-6-methyl-4-[(1-methylcyclopropyl)amino]furo[2,3-d]pyrimidine-5-carboxamide] and `Cc1oc2ncnc(NC3(C)CC3)c2c1C(=O)NCc1ncc(C(F)(F)F)cn1` [Example 696, 6-Methyl-4-[(1-methylcyclopropyl)amino]-N-{[5-(trifluoromethyl)pyrimidin-2-yl]methyl}furo[2,3-d]pyrimidine-5-carboxamide] fall in the same range of IC50: 10 to 100 nM for the first, 10 to 100 nM for the second.

`Cc1oc2ncnc(NC3(C)CC3)c2c1C(=O)NC(C)c1ccon1` (stereo not drawn) [Example 750, 6-Methyl-4-[(1-methylcyclopropyl)amino]-N-[1-(1,2-oxazol-3-yl)ethyl]furo[2,3-d]pyrimidine-5-carboxamide] and `Cc1oc2ncnc(NC3(C)CC3)c2c1C(=O)Nc1cnn(-c2ccccn2)c1` [Example 419, 6-Methyl-4-[(1-methylcyclopropyl)amino]-N-[1-(pyridin-2-yl)-1H-pyrazol-4-yl]furo[2,3-d]pyrimidine-5-carboxamide] fall in the same range of IC50: 10 to 100 nM for the first, 10 to 100 nM for the second.

First: Cc1oc2ncnc(NC3(C)CC3)c2c1C(=O)N1CCCN(c2ccccc2)CC1 [Example 157, 6-Methyl-N-(1-methylcyclopropyl)-5-(4-phenyl-1,4-diazepane-1-carbonyl)furo[2,3-d]pyrimidin-4-amine]
Second: Cc1oc2ncnc(NC3(C)CC3)c2c1C(=O)N1CCC(c2ccc(OCF)cc2)C1 (stereo not drawn) [Example 771, 5-{3-[4-(Fluoromethoxy)phenyl]pyrrolidine-1-carbonyl}-6-methyl-N-(1-methylcyclopropyl)furo[2,3-d]pyrimidin-4-amine]
The IC50 of the first is higher: 100 to 1000 nM for the first, 10 to 100 nM for the second.

`Cc1oc2ncnc(NC3(C)CC3)c2c1C(=O)NCc1ccc(N2CCOCC2)nn1` [Example 745, 6-Methyl-4-[(1-methylcyclopropyl)amino]-N-{[6-(morpholin-4-yl)pyridazin-3-yl]methyl}furo[2,3-d]pyrimidine-5-carboxamide] and `Cc1oc2ncnc(NC3(C)CC3)c2c1C(=O)N1C[C@@H]2[C@H](C1)[C@H]2c1ccc(F)cc1` [Example 279, 5-[(1R,5S,6S)-6-(4-Fluorophenyl)-3-azabicyclo[3.1.0]hexane-3-carbonyl]-6-methyl-N-(1-methylcyclopropyl)furo[2,3-d]pyrimidin-4-amine] fall in the same range of IC50: 10 to 100 nM for the first, 10 to 100 nM for the second.
